Assay results published in patent US6737383B1, “Herbicidal oxadiazolidines” (priority 1999, dated 2004).

Key:
[1] = tested on: bedstraw; test: Test B pre/postemergence bedstraw; format: in vivo, Galium aparine
In short: (§1)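 Herbicidal effect was estimated by eye on a ten-point control scale after plants spent twelve to sixteen days in a greenhouse following soil or foliar treatment. Foliar sprays targeted plants at one to four leaves; all doses were formulated in a non-phytotoxic solvent with surfactant.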

[2] = tested on: blackgrass; test: Test B pre/postemergence blackgrass; format: in vivo, Alopecurus myosuroides
In short: as §1

[3] = tested on: surinam grass; test: Test B pre/postemergence surinam grass; format: in vivo, Brachiaria decumbens
In short: as §1

[4] = tested on: corn; test: Test B pre/postemergence corn; format: in vivo, Zea mays
In short: as §1

[5] = tested on: crabgrass; test: Test B pre/postemergence crabgrass; format: in vivo, Digitaria sanguinalis
In short: as §1

[6] = tested on: pigweed; test: Test B pre/postemergence pigweed; format: in vivo, Amaranthus retroflexus
In short: as §1

[7] = tested on: rape; test: Test B pre/postemergence rape; format: in vivo, Brassica napus
In short: as §1

[8] = tested on: soybean; test: Test B pre/postemergence soybean; format: in vivo, Glycine max
In short: as §1

[9] = tested on: sugar beet; test: Test B pre/postemergence sugar beet; format: in vivo, Beta vulgaris
In short: as §1

[10] = tested on: velvetleaf; test: Test B pre/postemergence velvetleaf; format: in vivo, Abutilon theophrasti
In short: as §1

[11] = tested on: wheat; test: Test B pre/postemergence wheat; format: in vivo, Triticum aestivum
In short: as §1

[12] = tested on: wild oat; test: Test B pre/postemergence wild oat; format: in vivo, Avena fatua
In short: as §1

[13] = tested on: purple nutsedge; test: Test B pre/postemergence purple nutsedge; format: in vivo, Cyperus rotundus
In short: as §1

[14] = tested on: rice; test: Test B flood test rice; format: in vivo, Oryza sativa
In short: (§2)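 Read-out is a visual response score from 0 (no effect) to 10 (complete control), assigned by comparison with untreated controls. Treatment was applied at the 2-leaf stage, and plants stayed in the greenhouse for twelve to sixteen days before scoring.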

[15] = tested on: smallflower flatsedge; test: Test B flood test smallflower flatsedge; format: in vivo, Cyperus difformis
In short: as §2

[16] = tested on: duck salad; test: Test B flood test duck salad; format: in vivo, Heteranthera limosa
In short: as §2

[17] = Postemergence, Rate 62 g/ha, scale 0 to 10, 0 is no effect, 10 is complete control
[18] = Postemergence, Rate 250 g/ha, scale 0 to 10, 0 no effect, 10 complete control
[19] = Preemergence, Rate 62 g/ha, scale 0 to 10 (0 no effect, 10 complete control)
[20] = Preemergence, Rate 125 g/ha, scale 0 to 10 (0 no effect, 10 complete control)
[21] = Preemergence, Rate 250 g/ha, scale of 0 to 10 where 0 is no effect and 10 is complete control
[22] = Preemergence, Rate 500 g/ha, scale 0 (no effect) to 10 (complete control)
[23] = Rate 125 g/ha, Postemergence, scale 0 to 10, 0 no effect, 10 complete control
[24] = Rate 500 g/ha, Postemergence, scale 0 to 10, 0 no effect, 10 complete control
[25] = Rate 125 g/ha, Postemergence section (flood test species), scale 0 to 10, 0 no effect, 10 complete control
[26] = Rate 500 g/ha, listed under Postemergence (flood test species), scale 0 to 10, 0 no effect, 10 complete control
[27] = flood test, listed under Postemergence, Rate 250 g/ha, scale 0 to 10, 0 no effect, 10 complete control

CCN(C(=O)n1oc(=O)n(Cc2cccs2)c1=O)C1CCCCC1 [Compound 82]
Bedstraw plant response rating [1, 17]: 0 | Bedstraw plant response rating [1, 18]: 0 | Bedstraw plant response rating [1, 19]: 0 | Plant response rating, Bedstraw [1, 20]: 0 | Plant response rating, Bedstraw [1, 21]: 0 | Bedstraw plant response rating [1, 22]: 0 | Bedstraw plant response rating [1, 23]: 0 | Bedstraw plant response rating [1, 24]: 1 | Blackgrass plant response rating [2, 17]: 0 | Blackgrass plant response rating [2, 18]: 0 | Blackgrass plant response rating [2, 19]: 0 | Plant response rating, Blackgrass [2, 20]: 0 | Plant response rating, Blackgrass [2, 21]: 0 | Blackgrass plant response rating [2, 22]: 0 | Blackgrass plant response rating [2, 23]: 0 | Blackgrass plant response rating [2, 24]: 3 | B. signalgrass plant response rating [3, 17]: 0 | B. signalgrass plant response rating [3, 18]: 0 | B. signalgrass plant response rating [3, 19]: 0 | Plant response rating, B. signalgrass [3, 20]: 0 | Plant response rating, B. signalgrass [3, 21]: 0 | B. signalgrass plant response rating [3, 22]: 0 | B. signalgrass plant response rating [3, 23]: 0 | B. signalgrass plant response rating ([3]; Rate 500 g/ha, Postemergence, scale of 0 to 10 where 0 is no effect and 10 is complete control): 0 | Corn plant response rating [4, 17]: 0 | Corn plant response rating [4, 18]: 0 | Corn plant response rating [4, 19]: 0 | Plant response rating, Corn [4, 20]: 0 | Plant response rating, Corn [4, 21]: 0 | Corn plant response rating [4, 22]: 0 | Corn plant response rating [4, 23]: 0 | Corn plant response rating [4, 24]: 0 | Crabgrass plant response rating [5, 17]: 0 | Crabgrass plant response rating [5, 18]: 0 | Crabgrass plant response rating [5, 19]: 0 | Plant response rating, Crabgrass [5, 20]: 0 | Plant response rating, Crabgrass [5, 21]: 0 | Crabgrass plant response rating [5, 22]: 0 | Crabgrass plant response rating [5, 23]: 0 | Crabgrass plant response rating [5, 24]: 0 | Redroot pigweed plant response rating [6, 17]: 0 | Redroot pigweed plant response rating [6, 18]: 0 | Redroot pigweed plant response rating [6, 19]: 0 | Plant response rating, Redroot pigweed [6, 20]: 0 | Plant response rating, Redroot pigweed [6, 21]: 0 | Redroot pigweed plant response rating [6, 22]: 0 | Redroot pigweed plant response rating [6, 23]: 0 | Redroot pigweed plant response rating [6, 24]: 0 | Rape plant response rating [7, 17]: 0 | Rape plant response rating [7, 18]: 0 | Rape plant response rating [7, 19]: 0 | Plant response rating, Rape [7, 20]: 0 | Plant response rating, Rape [7, 21]: 0 | Rape plant response rating [7, 22]: 0 | Rape plant response rating [7, 23]: 0 | Rape plant response rating [7, 24]: 0 | Soybean plant response rating [8, 17]: 0 | Soybean plant response rating [8, 18]: 0 | Soybean plant response rating [8, 19]: 0 | Plant response rating, Soybean [8, 20]: 0 | Plant response rating, Soybean [8, 21]: 0 | Soybean plant response rating [8, 22]: 0 | Soybean plant response rating [8, 23]: 0 | Soybean plant response rating [8, 24]: 1 | Sugarbeets plant response rating [9, 17]: 0 | Sugarbeets plant response rating [9, 18]: 0 | Sugarbeets plant response rating [9, 19]: 0 | Plant response rating, Sugarbeets [9, 20]: 0 | Plant response rating, Sugarbeets [9, 21]: 0 | Sugarbeets plant response rating [9, 22]: 0 | Sugarbeets plant response rating [9, 23]: 0 | Sugarbeets plant response rating [9, 24]: 2 | Velvetleaf plant response rating [10, 17]: 0 | Velvetleaf plant response rating [10, 18]: 0 | Velvetleaf plant response rating [10, 19]: 0 | Plant response rating, Velvetleaf [10, 20]: 0 | Plant response rating, Velvetleaf [10, 21]: 0 | Velvetleaf plant response rating [10, 22]: 0 | Velvetleaf plant response rating [10, 23]: 0 | Velvetleaf plant response rating [10, 24]: 0 | Wheat plant response rating [11, 17]: 0 | Wheat plant response rating [11, 18]: 0 | Wheat plant response rating [11, 19]: 0 | Plant response rating, Wheat [11, 20]: 0 | Plant response rating, Wheat [11, 21]: 0 | Wheat plant response rating [11, 22]: 0 | Wheat plant response rating [11, 23]: 0 | Wheat plant response rating [11, 24]: 0 | Wild oats plant response rating [12, 17]: 0 | Wild oats plant response rating [12, 18]: 0 | Wild oats plant response rating [12, 19]: 0 | Plant response rating, Wild oats [12, 20]: 0 | Plant response rating, Wild oats [12, 21]: 0 | Wild oats plant response rating [12, 22]: 0 | Wild oats plant response rating [12, 23]: 0 | Wild oats plant response rating [12, 24]: 0 | Nutsedge plant response rating [13, 17]: 0 | Nutsedge plant response rating [13, 18]: 0 | Nutsedge plant response rating [13, 19]: 0 | Plant response rating, Nutsedge [13, 20]: 0 | Plant response rating, Nutsedge [13, 21]: 0 | Nutsedge plant response rating [13, 22]: 0 | Nutsedge plant response rating [13, 23]: 0 | Nutsedge plant response rating [13, 24]: 0 | Rice plant response rating [14, 17]: 0 | Rice plant response rating [14, 25]: 0 | Rice plant response rating [14, 26]: 0 | Rice plant response rating [14, 27]: 0 | S. Flatsedge plant response rating [15, 17]: 0 | S. Flatsedge plant response rating [15, 25]: 0 | S. Flatsedge plant response rating [15, 26]: 0 | S. Flatsedge plant response rating [15, 27]: 0 | Ducksalad plant response rating [16, 17]: 0 | Ducksalad plant response rating [16, 25]: 0 | Ducksalad plant response rating [16, 26]: 0 | Ducksalad plant response rating [16, 27]: 0
